These results are taken from patent US9758537B2 (Achillion Pharmaceuticals, Inc., priority 2014, dated 2017).

Structures are written as SMILES.

The target of the experiment is Human factor D (Homo sapiens (Human), UniProt P00746). Briefly: Human Factor D Assay. Format: biochemical. The conditions noted are these: human factor D 80 nM, substrate Z-L-Lys-SBzl, DTNB, OD405. The procedure:
Human factor D (purified from human serum, Complement Technology, Inc.) at 80 nM final concentration is incubated with test compound at various concentrations for 5 minutes at room temperature in 50 mM Tris, 1M NaCl, pH 7.5. A synthetic substrate Z-L-Lys-SBzl and DTNB (Ellman's reagent) are added to final concentrations of 10 μM each. The increase in color is recorded at OD405 nm in a microplate in kinetic mode over 30 minutes with 30 second time points in a […]. IC50 values are calculated by non-linear regression from the percentage of inhibition of complement factor D activity as a function of test compound concentration.

Human factor D, sequence (P00746 26-253): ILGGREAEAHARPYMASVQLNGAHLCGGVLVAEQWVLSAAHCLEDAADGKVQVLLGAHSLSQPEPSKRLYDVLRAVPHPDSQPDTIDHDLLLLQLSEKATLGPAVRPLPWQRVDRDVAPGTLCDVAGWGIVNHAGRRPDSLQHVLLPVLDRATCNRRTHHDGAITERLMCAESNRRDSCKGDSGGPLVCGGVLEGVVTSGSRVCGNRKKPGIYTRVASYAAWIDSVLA

Compound `O=C1CCCc2c1c1ccccc1n2CC(=O)N1C[C@H](F)C[C@H]1C(=O)NCc1cccc(Cl)c1F` [Compound 37, (2S,4R)-N-(3-chloro-2-fluorobenzyl)-4-fluoro-1-(2-(4-oxo-3,4-dihydro-1H-carbazol-9(2H)-yl)acetyl)pyrrolidine-2-carboxamide] showed an IC50 below 1 µM.

`CC(C)(C)OC(=O)N[C@@H](Cc1c[nH]c2ccccc12)C(=O)N1C[C@H](F)C[C@H]1C(=O)NCc1cccc(Cl)c1F` [Compound 38, tert-butyl (S)-1-((2S,4R)-2-(3-chloro-2-fluorobenzylcarbamoyl)-4-fluoropyrrolidin-1-yl)-3-(1H-indol-3-yl)-1-oxopropan-2-ylcarbamate] gave an IC50 above 10 µM.

`N[C@@H](Cc1c[nH]c2ccccc12)C(=O)N1C[C@H](F)C[C@H]1C(=O)NCc1cccc(Cl)c1F` [Compound 39, (2S,4R)-1-((S)-2-amino-3-(1H-indol-3-yl)propanoyl)-N-(3-chloro-2-fluorobenzyl)-4-fluoropyrrolidine-2-carboxamide]: the IC50 was above 10 µM.

As for `O=C(NCc1cccc(Cl)c1F)[C@@H]1C[C@@H](F)CN1C(=O)Cn1cc([N+](=O)[O-])c2ccccc21` [Compound 46, (2S,4R)-N-(3-chloro-2-fluorobenzyl)-4-fluoro-1-(2-(3-nitro-1H-indol-1-yl)acetyl)pyrrolidine-2-carboxamide], the IC50 was below 1 µM.

For `CC(=O)Nc1cn(CC(=O)N2C[C@H](F)C[C@H]2C(=O)NCc2cccc(Cl)c2F)c2ccccc12` [Compound 47, (2S,4R)-1-(2-(3-acetamido-1H-indol-1-yl)acetyl)-N-(3-chloro-2-fluorobenzyl)-4-fluoropyrrolidine-2-carboxamide], the IC50 is below 1 µM.

`CC(=O)c1cn(CC(=O)N2C[C@H](F)C[C@H]2C(=O)Nc2cccc(SC(F)(F)F)c2)c2cc(O)ccc12` [Compound 48, (2S,4R)-1-(2-(3-acetyl-6-hydroxy-1H-indol-1-yl)acetyl)-4-fluoro-N-(3-(trifluoromethylthio)phenyl)pyrrolidine-2-carboxamide] gave an IC50 below 1 µM.

With `O=C(NCc1cccc(Cl)c1F)[C@@H]1C[C@@H](F)CN1C(=O)c1csc(-c2cccnc2)n1` [Compound 50, (2S,4R)-N-(3-chloro-2-fluorobenzyl)-4-fluoro-1-(2-(pyridin-3-yl)thiazole-4-carbonyl)pyrrolidine-2-carboxamide], the IC50 was above 10 µM.

`CC(=O)Nc1ccc(C(=O)N2C[C@H](F)C[C@H]2C(=O)NCc2cccc(Cl)c2F)cn1` [Compound 51, (2S,4R)-1-(6-acetamidonicotinoyl)-N-(3-chloro-2-fluorobenzyl)-4-fluoropyrrolidine-2-carboxamide] came in with an IC50 above 10 µM.

In turn, `O=C(NCc1cccc(Cl)c1F)[C@@H]1C[C@@H](F)CN1C(=O)Cn1nc(I)c2ccncc21` [Compound 52, (2S,4R)-N-(3-chloro-2-fluorobenzyl)-4-fluoro-1-(2-(3-iodo-1H-pyrazolo[3,4-c]pyridin-1-yl)acetyl)pyrrolidine-2-carboxamide] gave an IC50 below 1 µM.

Consider `O=C(NCc1cccc(Cl)c1F)[C@@H]1C[C@@H](F)CN1C(=O)Nc1cn(C(=O)C2CC2)c2ccccc12` [Compound 54, (2S,4R)-N2-(3-chloro-2-fluorobenzyl)-N1-(1-(cyclopropanecarbonyl)-1H-indol-3-yl)-4-fluoropyrrolidine-1,2-dicarboxamide], for which the IC50 was below 1 µM.

`CC(=O)c1cn(C(C)C(=O)N2C[C@H](F)C[C@H]2C(=O)NCc2cccc(Cl)c2F)c2ccccc12` (stereo partly shown) [Compound 55] had an IC50 above 10 µM.

`CC(=O)c1cn(C(C)(C)C(=O)N2C[C@H](F)C[C@H]2C(=O)NCc2cccc(Cl)c2F)c2ccccc12` [Compound 56]: the IC50 was above 10 µM.

`CCOP(=O)(OCC)c1cc(Cl)c(F)c(CNC(=O)[C@@H]2C[C@@H](F)CN2C(=O)Cn2cc(C(C)=O)c3ccccc32)c1` [Compound 61] had an IC50 below 1 µM.

Compound `CC(=O)c1cn(CC(=O)N2[C@@H]3CCC[C@@H]3C[C@H]2C(=O)NCc2cccc(Cl)c2F)c2cc(O)ccc12` [Compound 62] registered an IC50 below 1 µM.

`CC(=O)c1cn(CC(=O)N2C[C@H](F)C[C@H]2C(=O)NCc2cc(P(=O)(O)O)cc(Cl)c2F)c2ccccc12` [Compound 63, 3-(((2S,4R)-1-(2-(3-acetyl-1H-indol-1-yl)acetyl)-4-fluoropyrrolidine-2-carboxamido)methyl)-5-chloro-4-fluorophenylphosphonic acid]: the IC50 was below 1 µM.

On to `O=C(NCc1cccc(Cl)c1F)[C@@H]1C[C@@H](F)CN1C(=O)CN1C=NS(=O)(=O)c2ccccc21` [Compound 65, (2S,4R)-N-(3-chloro-2-fluorobenzyl)-1-(2-(1,1-dioxido-4H-benzo[e][1,2,4]thiadiazin-4-yl)acetyl)-4-fluoropyrrolidine-2-carboxamide], for which the IC50 was above 10 µM.

As for `CC(C)(C)OC(=O)N1CCc2c(n(CC(=O)N3C[C@H](F)C[C@H]3C(=O)NCc3cccc(Cl)c3F)c3ccccc23)C1` [Compound 67, tert-butyl 9-(2-((2S,4R)-2-(3-chloro-2-fluorobenzylcarbamoyl)-4-fluoropyrrolidin-1-yl)-2-oxoethyl)-3,4-dihydro-1H-pyrido[3,4-b]indole-2(9H)-carboxylate], the IC50 was above 10 µM.

With `O=C(NCc1cccc(Cl)c1F)[C@@H]1C[C@@H](F)CN1C(=O)Cn1c2c(c3ccccc31)CCNC2` [Compound 68, (2S,4R)-N-(3-chloro-2-fluorobenzyl)-1-(2-(3,4-dihydro-1H-pyrido[3,4-b]indol-9(2H)-yl)acetyl)-4-fluoropyrrolidine-2-carboxamide], the IC50 was above 10 µM.

In turn, `CCOC(=O)CC(=O)N1CCc2c(n(CC(=O)N3C[C@H](F)C[C@H]3C(=O)NCc3cccc(Cl)c3F)c3ccccc23)C1` [Compound 70, ethyl 3-(9-(2-((2S,4R)-2-(3-chloro-2-fluorobenzylcarbamoyl)-4-fluoropyrrolidin-1-yl)-2-oxoethyl)-3,4-dihydro-1H-pyrido[3,4-b]indol-2(9H)-yl)-3-oxopropanoate] showed an IC50 above 10 µM.

`CC(=O)n1cc(C(=O)C(=O)N2C[C@H](F)C[C@H]2C(=O)NCc2cccc(Cl)c2F)c2ccccc21` [Compound 71, (2S,4R)-1-(2-(1-acetyl-1H-indol-3-yl)-2-oxoacetyl)-N-(3-chloro-2-fluorobenzyl)-4-fluoropyrrolidine-2-carboxamide] had an IC50 above 10 µM.

For the compound `O=C(O)CCC(=O)N1CCc2c(n(CC(=O)N3C[C@H](F)C[C@H]3C(=O)NCc3cccc(Cl)c3F)c3ccccc23)C1` [Compound 72, 4-(9-(2-((2S,4R)-2-(3-chloro-2-fluorobenzylcarbamoyl)-4-fluoropyrrolidin-1-yl)-2-oxoethyl)-3,4-dihydro-1H-pyrido[3,4-b]indol-2(9H)-yl)-4-oxobutanoic acid], the IC50 was above 10 µM.

With `O=C(NCc1cccc(Cl)c1F)[C@@H]1C[C@@H](F)CN1C(=O)Cn1nc(-c2cn[nH]c2)c2ccncc21` [Compound 73, (2S,4R)-1-(2-(3-(1H-pyrazol-4-yl)-1H-pyrazolo[3,4-c]pyridin-1-yl)acetyl)-N-(3-chloro-2-fluorobenzyl)-4-fluoropyrrolidine-2-carboxamide], the IC50 was below 1 µM.

The term IC50 denotes the midpoint of a concentration-inhibition curve.
